pEC50: −log10 of the molar value.
Target: T1, human GLP-1R (Homo sapiens, UniProt P43220)
T1 construct: host or cells: HEK293
Assay: GLP-1R cAMP assay (Example B1a, HTRF, 30 min at room temperature)
Type: cell-based
Conditions: Table 1d, stereoisomer pairs; read-out: EC50
Protocol: Assay was carried out with HEK293 expressing human GLP-1R using HTRF assay, developed by Wuxi Apptec. The method is a competitive assay between native cAMP produced by the cells and exogenous cAMP labeled with a proprietary dye d2. The tracer binding is visualized by a mAb anti-cAMP labeled with Cryptate. The signal (i.e. energy transfer) is inversely proportional to the concentration of CAMP in either standard or experimental sample. Compounds were tested in the absence of BETP. Ten microliter of cell suspension in assay buffer (5 mM HEPES, 500 μM IBMX, 0.1% BSA) were added to each well (1,000 cells per well) in a low volume 384-well plate for the assay. Serially diluted compounds were added in 100 nL volume to duplicate wells, by Labcyte Echo. GLP-1 (7-37) was used as positive control. Assay plate was incubated for 30 minutes at room temperature. Stock of cAMP Detection Solution was prepared by mixing 38 parts of cAMP lysis buffer, 1 part of cAMP-D2, 1 part of anti-cAMP cryptate reagent (Cisbio #62AM4PEJ). Ten microliter of the cAMP Detection Solution was added to each well, and the assay plate was incubated for 1 hour at room temperature in the dark. Plates were read on Envision plate reader. The data were analyzed by ScreenUltra in Dotmatics, with % activation expressed using following formula: (Well data−negative control)/(postive control−negative control)*100. Dose response curves were plotted and EC50 values calculated by non-linear regression using 4-parameter fit.

T1 sequence (P43220 24-463): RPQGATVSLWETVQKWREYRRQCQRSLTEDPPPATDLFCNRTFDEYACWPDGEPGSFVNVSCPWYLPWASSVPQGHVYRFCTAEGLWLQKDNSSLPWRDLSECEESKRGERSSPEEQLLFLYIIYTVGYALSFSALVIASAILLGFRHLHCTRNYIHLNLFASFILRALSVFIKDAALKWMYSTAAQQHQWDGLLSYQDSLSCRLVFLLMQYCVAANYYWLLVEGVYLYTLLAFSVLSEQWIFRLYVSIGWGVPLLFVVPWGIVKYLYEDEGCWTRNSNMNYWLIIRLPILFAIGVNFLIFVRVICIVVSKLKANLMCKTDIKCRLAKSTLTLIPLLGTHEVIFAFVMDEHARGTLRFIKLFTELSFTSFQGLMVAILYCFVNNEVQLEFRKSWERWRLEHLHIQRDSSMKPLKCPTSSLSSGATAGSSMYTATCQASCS

Row | Structure (SMILES) | pEC50
1 | Cc1cc(-n2nc3c(c2-n2ccn(-c4ccc5c(cnn5C)c4F)c2=O)[C@H]2COC[C@@H](C3)N2C(=O)c2cc3cc([C@H]4CCOC(C)(C)C4)ccc3n2[C@@]2(c3noc(=O)[nH]3)C[C@@H]2C)cc(C)c1F [Compound 120, 3-((1S,2S)-1-(5-((S)-2,2-dimethyltetrahydro-2H-pyran-4-yl)-2-((4S,8R)-3-(3-(4-fluoro-1-methyl-1H-indazol-5-yl)-2-oxo-2,3-dihydro-1H-imidazol-1-yl)-2-(4-fluoro-3,5-dimethylphenyl)-2,4,5,7,8,9-hexahydro-4,8-epiminooxocino [5,4-c]pyrazole-10-carbonyl)-1H-indol-1-yl)-2-methylcyclopropyl)-1,2,4-oxadiazol-5(4H)-one] | < 5.00

Same assay, conditions: cAMP accumulation in HEK293 expressing human GLP-1R, no BETP, 30 min room temperature (Method B1a, compounds ID 1-609), Table 1; read-out: EC50

Row | Structure (SMILES) | pEC50
2 | Cc1cc(-n2nc3c(c2-c2ncn(-c4ccc5c(cnn5C)c4F)c2C)[C@H](C)N(C(=O)c2cc4cc(N5C6CCC5COC6)ccc4n2C2(c4noc(=O)[nH]4)CC2)CC3)cc(C)c1F [Compound 107, 3-[1-[2-[(4S)-2-(4-fluoro-3,5-dimethyl-phenyl)-3-[1-(4-fluoro-1-methyl-indazol-5-yl)-5-methyl-imidazol-4-yl]-4-methyl-6,7-dihydro-4H-pyrazolo[4,3-c]pyridine-5-carbonyl]-5-(3-oxa-8-azabicyclo[3.2.1]octan-8-yl)indol-1-yl]cyclopropyl]-4H-1,2,4-oxadiazol-5-one] | < 5.00
3 | Cc1cc(-n2nc3c(c2-c2ncn(-c4ccc5c(cnn5C)c4F)c2C)[C@H](C)N(C(=O)c2cc4cc(N5CCS(=O)(=O)CC5)ccc4n2C2(c4noc(=O)[nH]4)CC2)CC3)cc(C)c1F [Compound 108, 3-[1-[5-(1,1-dioxo-1,4-thiazinan-4-yl)-2-[(4S)-2-(4-fluoro-3,5-dimethyl-phenyl)-3-[1-(4-fluoro-1-methyl-indazol-5-yl)-5-methyl-imidazol-4-yl]-4-methyl-6,7-dihydro-4H-pyrazolo[4,3-c]pyridine-5-carbonyl]indol-1-yl]cyclopropyl]-4H-1,2,4-oxadiazol-5-one] | < 5.00
4 | Cc1cc(-n2nc3c(c2-n2ccn(-c4ccc5c(cnn5C)c4F)c2=O)[C@@H]2CC[C@H](C3)N2C(=O)c2cc3cc([C@H]4CCOC(C)(C)C4)ccc3n2C2(c3noc(=O)[nH]3)CC2)cc(C)c1F [Compound 114, 3-(1-(5-((S)-2,2-dimethyltetrahydro-2H-pyran-4-yl)-2-((4S,7R)-3-(3-(4-fluoro-1-methyl-1H-indazol-5-yl)-2-oxo-2,3-dihydro-1H-imidazol-1-yl)-2-(4-fluoro-3,5-dimethylphenyl)-2,4,5,6,7,8-hexahydro-4,7-epiminocyclohepta [c]pyrazole-9-carbonyl)-1H-indol-1-yl)cyclopropyl)-1,2,4-oxadiazol-5 (4H)-one] | 6.23
5 | Cc1cc(-n2nc3c(c2-n2ccn(-c4ccc5c(cnn5C)c4F)c2=O)[C@H](C)N(C(=O)c2cc4cc([C@H]5CCOC(C)(C)C5)ccc4n2C(=O)c2noc(=O)[nH]2)CC3)cc(C)c1F [Compound 115, 3-[5-[(4S)-2,2-dimethyltetrahydropyran-4-yl]-2-[(4S)-2-(4-fluoro-3,5-dimethyl-phenyl)-3-[3-(4-fluoro-1-methyl-indazol-5-yl)-2-oxo-imidazol-1-yl]-4-methyl-6,7-dihydro-4H-pyrazolo[4,3-c]pyridine-5-carbonyl]indole-1-carbonyl]-4H-1,2,4-oxadiazol-5-one] | < 5.00
6 | Cc1cc(-n2nc3c(c2-n2ccn(-c4ccc5c(cnn5C)c4F)c2=O)C2COCC(C3)N2C(=O)c2cc3cc([C@H]4CCOC(C)(C)C4)ccc3n2[C@@]2(c3noc(=O)[nH]3)C[C@@H]2C)cc(C)c1F (stereo partly drawn) [Compound 116, 3-((1S,2S)-1-(5-((S)-2,2-dimethyltetrahydro-2H-pyran-4-yl)-2-(3-(3-(4-fluoro-1-methyl-1H-indazol-5-yl)-2-oxo-2,3-dihydro-1H-imidazol-1-yl)-2-(4-fluoro-3,5-dimethylphenyl)-2,4,5,7,8,9-hexahydro-4,8-epiminooxocino [5,4-c]pyrazole-10-carbonyl)-1H-indol-1-yl)-2-methylcyclopropyl)-1,2,4-oxadiazol-5(4H)-one] | 6.76
7 | Cc1cc(-n2nc3c(c2-n2ccn(-c4ccc(C(N)=O)c(F)c4)c2=O)[C@@H]2CC[C@H](C3)N2C(=O)c2cc3cc([C@H]4CCOC(C)(C)C4)ccc3n2C2(c3noc(=O)[nH]3)CC2)cc(C)c1F [Compound 117, 4-[3-[(1S,8R)-11-[5-[(4S)-2,2-dimethyltetrahydropyran-4-yl]-1-[1-(5-oxo-4H-1,2,4-oxadiazol-3-yl)cyclopropyl]indole-2-carbonyl]-4-(4-fluoro-3,5-dimethyl-phenyl)-4,5,11-triazatricyclo[6.2.1.02,6]undeca-2,5-dien-3-yl]-2-oxo-imidazol-1-yl]-2-fluoro-benzamide] | < 5.00
8 | Cc1cc(-n2nc3c(c2-n2ccn(-c4ccc5c(cnn5C)c4F)c2=O)[C@@H]2CC[C@H](C3)N2C(=O)c2cc3cc([C@H]4CCOC(C)(C)C4)ccc3n2C2(c3nnn[nH]3)CC2)cc(C)c1F [Compound 118, 1-((4S,7R)-9-(1-(1-(1H-tetrazol-5-yl)cyclopropyl)-5-((S)-2,2-dimethyltetrahydro-2H-pyran-4-yl)-1H-indole-2-carbonyl)-2-(4-fluoro-3,5-dimethylphenyl)-2,4,5,6,7,8-hexahydro-4,7-epiminocyclohepta [c]pyrazol-3-yl)-3-(4-fluoro-1-methyl-1H-indazol-5-yl)-1H-imidazol-2 (3H)-one] | 6.34
9 | Cc1cc(-n2nc3c(c2-n2ccn(-c4ccc5nnccc5c4)c2=O)[C@@H]2CC[C@H](C3)N2C(=O)c2cc3cc([C@H]4CCOC(C)(C)C4)ccc3n2C2(c3noc(=O)[nH]3)CC2)cc(C)c1F [Compound 119, 3-[1-[2-[(1S,8R)-3-(3-cinnolin-6-yl-2-oxo-imidazol-1-yl)-4-(4-fluoro-3,5-dimethyl-phenyl)-4,5,11-triazatricyclo[6.2.1.02,6]undeca-2,5-diene-11-carbonyl]-5-[(4S)-2,2-dimethyltetrahydropyran-4-yl]indol-1-yl]cyclopropyl]-4H-1,2,4-oxadiazol-5-one] | 5.64
10 | Cc1cc(-n2nc3c(c2-n2ccn(-c4ccc5c(cnn5C)c4F)c2=O)[C@H]2COC[C@@H](C3)N2C(=O)c2cc3cc([C@H]4CCOC(C)(C)C4)ccc3n2[C@@]2(c3noc(=O)[nH]3)C[C@@H]2C)cc(C)c1F [Compound 120, 3-((1S,2S)-1-(5-((S)-2,2-dimethyltetrahydro-2H-pyran-4-yl)-2-((4S,8R)-3-(3-(4-fluoro-1-methyl-1H-indazol-5-yl)-2-oxo-2,3-dihydro-1H-imidazol-1-yl)-2-(4-fluoro-3,5-dimethylphenyl)-2,4,5,7,8,9-hexahydro-4,8-epiminooxocino [5,4-c]pyrazole-10-carbonyl)-1H-indol-1-yl)-2-methylcyclopropyl)-1,2,4-oxadiazol-5(4H)-one] | < 5.00
11 | Cc1cc(-n2nc3c(c2-n2ccn(-c4ccc5c(cnn5C)c4F)c2=O)[C@@H]2CC[C@H](C3)N2C(=O)c2cc3cc([C@H]4CCOC(C)(C)C4)ccc3n2C(=O)c2noc(=O)[nH]2)cc(C)c1F [Compound 122, 3-[5-[(4S)-2,2-dimethyltetrahydropyran-4-yl]-2-[(1S,8R)-4-(4-fluoro-3,5-dimethyl-phenyl)-3-[3-(4-fluoro-1-methyl-indazol-5-yl)-2-oxo-imidazol-1-yl]-4,5,11-triazatricyclo[6.2.1.02,6]undeca-2,5-diene-11-carbonyl]indole-1-carbonyl]-4H-1,2,4-oxadiazol-5-one] | < 5.00
12 | Cc1cc(-n2nc3c(c2-n2ccn(-c4ccc5cnncc5c4)c2=O)[C@@H]2CC[C@H](C3)N2C(=O)c2cc3cc([C@H]4CCOC(C)(C)C4)ccc3n2C2(c3noc(=O)[nH]3)CC2)cc(C)c1F [Compound 124, 3-(1-(5-((S)-2,2-dimethyltetrahydro-2H-pyran-4-yl)-2-((4S,7R)-2-(4-fluoro-3,5-dimethylphenyl)-3-(2-oxo-3-(phthalazin-6-yl)-2,3-dihydro-1H-imidazol-1-yl)-2,4,5,6,7,8-hexahydro-4,7-epiminocyclohepta [c]pyrazole-9-carbonyl)-1H-indol-1-yl)cyclopropyl)-1,2,4-oxadiazol-5 (4H)-one] | 5.86
13 | Cc1cc(-n2nc3c(c2-n2ccn(-c4cccc(C(N)=O)c4F)c2=O)[C@@H]2CC[C@H](C3)N2C(=O)c2cc3cc([C@H]4CCOC(C)(C)C4)ccc3n2C2(c3noc(=O)[nH]3)CC2)cc(C)c1F [Compound 125, 3-[3-[(1S,8R)-11-[5-[(4S)-2,2-dimethyltetrahydropyran-4-yl]-1-[1-(5-oxo-4H-1,2,4-oxadiazol-3-yl)cyclopropyl]indole-2-carbonyl]-4-(4-fluoro-3,5-dimethyl-phenyl)-4,5,11-triazatricyclo[6.2.1.02,6]undeca-2,5-dien-3-yl]-2-oxo-imidazol-1-yl]-2-fluoro-benzamide] | < 5.00
14 | Cc1cc(-n2nc3c(c2-n2ccn(-c4ccc5c(cnn5C)c4F)c2=O)[C@@H]2CC[C@H](C3)N2C(=O)c2cc3ccc(C4CCOC(C)(C)C4)cc3nc2C2(c3noc(=O)[nH]3)CC2)cc(C)c1F (stereo partly drawn) [Compound 126, 3-[1-[7-(2,2-dimethyltetrahydropyran-4-yl)-3-[(1S,8R)-4-(4-fluoro-3,5-dimethyl-phenyl)-3-[3-(4-fluoro-1-methyl-indazol-5-yl)-2-oxo-imidazol-1-yl]-4,5,11-triazatricyclo[6.2.1.02,6]undeca-2,5-diene-11-carbonyl]-2-quinolyl]cyclopropyl]-4H-1,2,4-oxadiazol-5-one] | < 5.00

Same assay, conditions: text to Table 1d, bridge atoms configured out of the plane or toward the reader

Row | Structure (SMILES) | potency
15 | Cc1cc(-n2nc3c(c2-n2ccn(-c4ccc5c(cnn5C)c4F)c2=O)[C@H]2COC[C@@H](C3)N2C(=O)c2cc3cc([C@H]4CCOC(C)(C)C4)ccc3n2[C@@]2(c3noc(=O)[nH]3)C[C@@H]2C)cc(C)c1F [Compound 120, 3-((1S,2S)-1-(5-((S)-2,2-dimethyltetrahydro-2H-pyran-4-yl)-2-((4S,8R)-3-(3-(4-fluoro-1-methyl-1H-indazol-5-yl)-2-oxo-2,3-dihydro-1H-imidazol-1-yl)-2-(4-fluoro-3,5-dimethylphenyl)-2,4,5,7,8,9-hexahydro-4,8-epiminooxocino [5,4-c]pyrazole-10-carbonyl)-1H-indol-1-yl)-2-methylcyclopropyl)-1,2,4-oxadiazol-5(4H)-one] | little or no potency

Source: patent US12617783B2, “Heterocyclic GLP-1R agonists” (BIOMEA FUSION, INC., priority 2024, dated 2026)
